Data taken from patent publication US20100040552A1, “METHODS TO EVALUATE GLUCOCORTICOID RECEPTOR AGONISTS AND ANTAGONISTS FOR EFFECTS ON NEURON-LIKE CELLS” (ROSETTA INPHARMATICS LLC, priority 2005, published 2010).

Tests used:
Glucocorticoid Receptor [1] = biological target: T1, Glucocorticoid Receptor (Homo sapiens, UniProt P04150); test: Transactivation assay, A549 cells; type: cell-based; conditions: A549, read-out: Transactivation, A549 Emax
T1 sequence (P04150 1-777): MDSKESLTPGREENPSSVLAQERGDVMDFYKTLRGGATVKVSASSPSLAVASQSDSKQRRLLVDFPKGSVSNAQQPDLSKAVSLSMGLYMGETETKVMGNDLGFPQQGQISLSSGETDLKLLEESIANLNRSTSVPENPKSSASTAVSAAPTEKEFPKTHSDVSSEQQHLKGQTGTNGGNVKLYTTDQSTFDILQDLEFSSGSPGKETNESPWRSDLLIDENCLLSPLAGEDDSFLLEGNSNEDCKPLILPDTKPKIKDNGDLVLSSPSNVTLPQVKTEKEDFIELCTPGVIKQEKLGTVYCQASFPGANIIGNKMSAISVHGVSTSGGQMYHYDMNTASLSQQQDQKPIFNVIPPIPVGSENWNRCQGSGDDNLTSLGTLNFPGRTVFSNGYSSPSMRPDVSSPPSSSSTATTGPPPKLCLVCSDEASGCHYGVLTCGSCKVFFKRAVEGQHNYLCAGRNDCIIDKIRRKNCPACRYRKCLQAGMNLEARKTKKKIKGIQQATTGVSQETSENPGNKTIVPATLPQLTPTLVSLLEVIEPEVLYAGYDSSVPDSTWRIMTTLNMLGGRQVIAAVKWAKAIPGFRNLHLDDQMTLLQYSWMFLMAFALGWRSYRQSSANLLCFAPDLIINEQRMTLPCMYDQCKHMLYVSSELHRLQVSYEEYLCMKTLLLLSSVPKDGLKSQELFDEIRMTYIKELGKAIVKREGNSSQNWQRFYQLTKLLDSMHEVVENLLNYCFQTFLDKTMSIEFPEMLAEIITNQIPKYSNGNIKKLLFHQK

[2] = biological target: T2, PR (progesterone receptor) (Homo sapiens, UniProt P06401); test: PR binding study
T2 sequence (P06401 1-933): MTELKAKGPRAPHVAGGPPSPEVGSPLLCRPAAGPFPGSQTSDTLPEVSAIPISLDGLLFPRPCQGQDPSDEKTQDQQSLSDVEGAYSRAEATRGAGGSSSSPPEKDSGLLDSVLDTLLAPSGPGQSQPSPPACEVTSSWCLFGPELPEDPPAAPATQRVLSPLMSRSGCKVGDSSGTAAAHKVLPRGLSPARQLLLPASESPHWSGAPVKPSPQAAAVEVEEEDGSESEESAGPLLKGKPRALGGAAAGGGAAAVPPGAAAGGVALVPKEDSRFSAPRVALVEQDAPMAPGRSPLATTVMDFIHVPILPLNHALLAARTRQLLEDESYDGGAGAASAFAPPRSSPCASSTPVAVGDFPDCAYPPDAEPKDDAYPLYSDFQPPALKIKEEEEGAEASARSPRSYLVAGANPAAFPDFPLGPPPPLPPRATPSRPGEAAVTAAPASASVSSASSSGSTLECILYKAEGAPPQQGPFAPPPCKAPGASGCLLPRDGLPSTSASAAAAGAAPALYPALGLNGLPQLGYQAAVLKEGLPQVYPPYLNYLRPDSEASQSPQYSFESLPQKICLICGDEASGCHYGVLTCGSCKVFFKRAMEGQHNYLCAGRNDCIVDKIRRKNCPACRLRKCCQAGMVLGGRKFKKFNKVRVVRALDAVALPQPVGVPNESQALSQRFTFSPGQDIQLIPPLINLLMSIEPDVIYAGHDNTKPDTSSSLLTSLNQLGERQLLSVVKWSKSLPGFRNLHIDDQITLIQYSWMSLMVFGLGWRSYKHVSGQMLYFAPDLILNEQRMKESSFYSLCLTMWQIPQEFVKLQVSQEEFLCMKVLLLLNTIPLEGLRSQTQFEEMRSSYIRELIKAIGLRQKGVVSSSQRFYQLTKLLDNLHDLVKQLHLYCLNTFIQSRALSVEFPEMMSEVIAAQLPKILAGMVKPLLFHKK
Description: The following abbreviations are used in Table II: MR, mineralocorticoid receptor; GR, glucocorticoid receptor; and PR, progesterone receptor.

A549 cells = test: A549 cell molecular profiling experiment; type: cell-based; conditions: 100 nM
CA77 cells = test: CA77 cell microarray profiling; type: cell-based, rat
Experimental: In order to reduce false positives, progesterone, estradiol, and aldosterone served as out-groups for non-specific effects. Samples were collected at both 6 hours and 24 hours after contacting the CA77 cells with a compound.

Glucocorticoid Receptor [3] = biological target: T1, Glucocorticoid Receptor; test: Transactivation assay, MDA cells; type: cell-based; parameters: host or cells: MDA cells; conditions: read-out: Transactivation, MDA Emax
Glucocorticoid Receptor [4] = biological target: T1, Glucocorticoid Receptor; test: Transrepression assay, COS cells; type: cell-based; parameters: host or cells: COS cells; conditions: COS

## C[C@@H]1C[C@H]2[C@@H]3CCC4=CC(=O)C=C[C@]4(C)[C@@]3(F)[C@@H](O)C[C@]2(C)[C@@]1(O)C(=O)CO [Dexamethasone, dexamethasone]
Glucocorticoid Receptor [1]
  Emax: 118%
[2]
  IC50: > 1 µM
A549 cells; set of 1091 genes
  Up-regulated genes in category DMSO (<0%): 0
  Up-regulated genes in category Full (≧90%): 1087
  Up-regulated genes in category High (66.7-90%): 4
  Up-regulated genes in category Low (0-33.3%): 0
  Up-regulated genes in category Middle (33.3-66.7%): 0
A549 cells; set of 1249 genes
  Down-regulated genes in category DMSO (<0%): 0
  Down-regulated genes in category Full (≧90%): 1237
  Down-regulated genes in category High (66.7-90%): 12
  Down-regulated genes in category Low (0-33.3%): 0
  Down-regulated genes in category Middle (33.3-66.7%): 0
CA77 cells
  Sult1a1 up-regulation as detected by microarray: 11 fold
Glucocorticoid Receptor [3]
  Emax: 125%
Glucocorticoid Receptor [4]; read-out: Transrepression, COS % Emax, 0.3 μM
  Emax at 0.3 µM: 100%
Glucocorticoid Receptor [4]; read-out: Transrepression, COS % Emax, 1 uM
  Emax at 1 µM: 100%
